Data from patent US20260165323A1, “USE OF STROBILURIN TYPE COMPOUNDS FOR COMBATING PHYTOPATHOGENIC FUNGI CONTAINING AN AMINO ACID SUBSTITUTION F129L IN THE MITOCHONDRIAL CYTOCHROME B PROTEIN CONFERRING RESISTANCE TO QO […]” (priority 2022, published 2026).

Tests used:
Format in all cases: in vivo
[1] = test system: Phakopsora pachyrhizi containing the amino acid substitution F129L in the mitochondrial cytochrome b protein; assay: Use Example 1: protective control of soybean rust on soybeans (PHAKPA P2); conditions: inoculated 2 days after spraying, % diseased leaf area
Protocol: (§1) The compound was dissolved in a mixture of acetone and/or dimethylsulfoxide and the wetting agent/emulsifier Wettol, which is based on ethoxylated alkylphenoles, in a ratio (volume) solvent-emulsifier of 99 to 1 to give a total volume of 5 ml. Subsequently, water was added to total volume of 100 ml. This stock solution was then diluted with the described solvent-emulsifier-water mixture to the final concentration given in the tables below.
Use Example 1. Protective Control of Soybean Rust on Soybeans Caused by Phakopsora pachyrhizi (PHAKPA P2)
(§2) Leaves of potted soybean seedlings were sprayed to run-off with the previously described spray solution, containing the concentration of active ingredient or their mixture as described below. The plants were allowed to air-dry. The trial plants were cultivated for 2 days in a greenhouse chamber at 23-27° C. and a relative humidity between 60 and 80%. Then the plants were inoculated with spores of Phakopsora pachyrhizi. The strain used contains the amino acid substitution F129L in the mitochondrial cytochrome b protein conferring resistance to Qo inhibitors. To ensure the success the artificial inoculation, the plants were transferred to a humid chamber with a relative humidity of about 95% and 20 to 24° C. for 24 hr. The trial plants were cultivated for up to 14 days in a greenhouse chamber at 23 to 27° C. and a relative humidity between 60 and 80%. The extent of fungal attack on the leaves was visually assessed as % diseased leaf area, the disease level of untreated controls was usually higher than 85%.

[2] = test system: Phakopsora pachyrhizi containing the amino acid substitution F129L in the mitochondrial cytochrome b protein; assay: Use Example 2: protective control of soybean rust on soybeans (PHAKPA P6); conditions: inoculated six days after spraying, % diseased leaf area
Protocol: as §1
Use Example 2. Protective Control of Soybean Rust on Soybeans Caused by Phakopsora Pachyrhizi (PHAKPA P6)
as §2, with “active ingredient as described” for “active ingredient or their mixture as described”, “cultivated for six days in” for “cultivated for 2 days in”, “95% and 23 to 27°” for “95% and 20 to 24°”, “23 to 27° C. for” for “20 to 24° C. for”

Puccinia recondita = assay: Use Example 4: preventative control of brown rust on wheat (PUCCRT P7); conditions: inoculated seven days after spraying, % diseased leaf area
Protocol: as §1
Use Example 4. Preventative Control of Brown Rust on Wheat Caused by Puccinia recondita (PUCCRT P7)
The first two developed leaves of potted wheat seedling were sprayed to run-off with previously described spray solution, containing the concentration of active ingredient or their mixture as described below. Seven days later the plants were dusted with spores of Puccinia recondita. To ensure the success of the artificial inoculation, the plants were transferred to a humid chamber without light and a relative humidity of 95 to 99% and 20 to 24° C. for 24 h. Then the trial plants were cultivated for 9 to 11 days in a greenhouse chamber at 20 to 24° C. and a relative humidity between 65 and 70%. The extent of fungal attack on the leaves was visually assessed as % diseased leaf area, the disease level of untreated controls was usually between 80 and 100%.

Structure (SMILES)	% PHAKPA (F129L) Disease level P2 at 4 ppm [1] [%]	% PHAKPA (F129L) Disease level P2 at 16 ppm [1] [%]	% PHAKPA (F129L) Disease level P6 at 4 ppm [2] [%]	% PHAKPA (F129L) Disease level P6 at 16 ppm [2] [%]	% PUCCRT Disease level P7 at 4 ppm (Puccinia recondita) [%]	% PUCCRT Disease level P7 at 16 ppm (Puccinia recondita) [%]
COC/C(=N\OCc1c(Cl)cccc1/C(=N\OC)C(=O)OC)c1cccc(C)c1 [compound 126]	71	14	73	34	–	–
COC/C(=N\OCc1c(Cl)cccc1/C(=N\OC)C(=O)OC)c1cccc(OC)c1 [compound 120]	67	11	81	45	22	2
CO/C=C(/C(=O)OC)c1cccc(Br)c1CO/N=C(\COC1CC1)c1ccc(F)cc1 [compound 65]	15	1	23	2	–	–
COC/C(=N\OCc1c(Cl)cccc1/C(=N\OC)C(=O)OC)c1cc(F)c(F)c(F)c1 [compound 72]	19	1	48	10	60	16
COC/C(=N\OCc1c(Cl)cccc1/C(=N\OC)C(=O)OC)c1c(F)cc(Cl)cc1F [compound 89]	53	17	45	13	36	25
CO/C=C(/C(=O)OC)c1cccc(Cl)c1CO/N=C(\COC)c1ccc(Cl)cc1Cl [compound 81]	63	21	35	20	–	–
CO/C=C(/C(=O)OC)c1cccc(Cl)c1CO/N=C(\COC)c1c(F)cc(Cl)cc1F [compound 115]	8	0	9	1	57	14
COC/C(=N\OCc1c(Cl)cccc1/C(=N\OC)C(=O)OC)c1ccc(Cl)c(Cl)c1 [compound 68]	17	2	45	9	40	12
CNC(=O)/C(=N/OC)c1cccc(Cl)c1CO/N=C(\COC)c1cccc(Cl)c1Cl [compound 75]	73	24	25	11	67	33
COC/C(=N\OCc1c(Cl)cccc1/C(=N\OC)C(=O)OC)c1cc(Cl)ccc1F [compound 103]	72	18	72	18	–	–
CO/C=C(/C(=O)OC)c1cccc(Cl)c1CO/N=C(/COC)c1ccc(F)cn1 [compound 132, methyl (E)-2-[3-chloro-2-[[(E)-[1-(5-fluoro-2-pyridyl)-2-methoxy-ethylidene]amino]oxymethyl]phenyl]-3-methoxy-prop-2-enoate]	–	33	–	15	–	–
CNC(=O)/C(=N/OC)c1cccc(Cl)c1CO/N=C(\COC)c1cccc(F)c1F [compound 91]	13	15	17	18	–	–
COC/C(=N\OCc1c(Cl)cccc1/C(=N\OC)C(=O)OC)c1ccccc1C [compound 124]	–	–	–	–	62	22
CO/C=C(/C(=O)OC)c1cccc(Cl)c1CO/N=C(\COC1CC1)c1ccccc1 [compound 61]	11	0	16	2	–	–
COC/C(=N\OCc1c(Cl)cccc1/C(=N\OC)C(=O)OC)c1cc(F)cc(F)c1 [compound 82]	12	0	57	22	57	17
CNC(=O)/C(=N/OC)c1cccc(Cl)c1CO/N=C(\COC)c1ccc(F)cc1Cl [compound 94]	29	5	43	11	57	26
CNC(=O)/C(=N/OC)c1cccc(Cl)c1CO/N=C(\COC1CC1)c1ccc(F)cc1 [compound 64]	37	7	45	7	–	–
COC/C(=N\OCc1c(Cl)cccc1/C(=N\OC)C(=O)OC)c1ccc(F)c(F)c1F [compound 98]	72	15	72	31	50	12
COC/C(=N\OCc1c(Cl)cccc1/C(=N\OC)C(=O)OC)c1ccc(Cl)cc1F [compound 104]	42	7	27	9	–	–
CNC(=O)/C(=N/OC)c1cccc(Cl)c1CO/N=C(\COC)c1ccc(F)c(F)c1F [compound 108]	21	4	19	7	–	–
COC/C(=N\OCc1c(Cl)cccc1/C(=N\OC)C(=O)OC)c1ccc(Cl)c(F)c1 [compound 114]	35	10	82	30	–	–
CO/C=C(/C(=O)OC)c1cccc(Cl)c1CO/N=C(\COC)c1ccccc1Cl [compound 15, Methyl-(E)-2-[3-chloro-2-[[(Z)-[1-(2-chlorophenyl)-2-methoxy-ethylidene]amino]oxymethyl]phenyl]-3-methoxy-prop-2-enoate]	30	4	40	7	–	–
CO/C=C(/C(=O)OC)c1cccc(Cl)c1CO/N=C(\COC1CC1)c1ccc(F)cc1 [compound 60]	21	2	21	6	–	–
CNC(=O)/C(=N/OC)c1cccc(Cl)c1CO/N=C(\COC)c1ccc(Cl)cc1Cl [compound 85]	42	37	65	25	–	–
